In the assay the target is Adenylate kinase 2 (Rattus norvegicus) (UniProt P29410). Description: Inhibitory activity against rat adenylate kinase II (AK-II) isoenzyme was determined in the presence of ATP, non competitive inhibition.

Our source for the Ki values is BindingDB's records for doi:10.1021/jm00352a016 (1983).

Usually Ki stands for the dissociation constant of the complex between target and ligand, obtained from inhibition or displacement.

Turning to `Nc1ncnc2c1ncn2[C@@H]1O[C@H](CO)[C@@H](O)[C@H]1O` [[U-14C]adenosine], the inhibition constant (Ki) was 87 mM.
